Converted amounts (≈) assume the structure as drawn.
Key:
Assay in all cases: MIC in vitro, agar diffusion well method
Format in all cases: cell-based
[1] = test system: Paecilomyces varioti ATCC 28820; details: Paecilomyces varioti ATCC 28820, agar diffusion well method
Description: (§1) Minimal inhibitory concentration (mcg/ml)
(§2) *As determined by an agar diffusion well method.

[2] = test system: Penicillium digitatum ATCC 26821; details: Penicillium digitatum ATCC 26821, agar diffusion well method
Description: as §1, §2

[3] = test system: Bacillus sp. E ATCC 27359; details: Bacillus sp. E ATCC 27359, agar diffusion well method
Description: as §1, §2

[4] = test system: Streptomyces cellulosae ATCC 3313; details: Streptomyces cellulosae ATCC 3313, agar diffusion well method
Description: as §1, §2

[5] = test system: Bacillus subtilis ATCC 558; details: Bacillus subtilis ATCC 558, agar diffusion well method
Description: as §1, §2

[6] = test system: Candida albicans NRRL 477; details: Candida albicans NRRL 477, agar diffusion well method
Description: as §1, §2

[7] = test system: Saccharomyces cerevisiae ATCC 4226; details: Saccharomyces cerevisiae ATCC 4226, agar diffusion well method
Description: as §1, §2

[8] = test system: Streptococcus faecium ATCC 8043; details: Streptococcus faecium ATCC 8043, agar diffusion well method
Description: as §1, §2

[9] = test system: Bacillus megaterium ATCC 8011; details: Bacillus megaterium ATCC 8011, agar diffusion well method
Description: as §1, §2

[10] = test system: Staphylococcus aureus ATCC 6538P
Description: as §1, §2

[11] = test system: Bacillus sp. TA ATCC 27860; details: Bacillus sp. TA ATCC 27860, agar diffusion well method
Description: as §1, §2

[12] = test system: Mycobacterium phlei ATCC 355; details: Mycobacterium phlei ATCC 355, agar diffusion well method
Description: as §1, §2

Structure (SMILES): CC[C@H](C(=O)[C@@H](C)[C@@H](O)[C@H](C)[C@H]1O[C@@](O)(CC)[C@@H](C)C[C@@H]1C)[C@H]1O[C@](C)(C23OC(C)C(CC)(CC2C)O3)C[C@@H]1C (stereo partly drawn) [Antibiotic X-14889D]
- Minimal inhibitory concentration [1]: 1000 µg/mL (≈ 1760 µM)
- Minimal inhibitory concentration [2]: 1000 µg/mL (≈ 1760 µM)
- Minimal inhibitory concentration [3]: 7.9 µg/mL (≈ 13.9 µM)
- Minimal inhibitory concentration [4]: 1000 µg/mL (≈ 1760 µM)
- Minimal inhibitory concentration [5]: 1000 µg/mL (≈ 1760 µM)
- Minimal inhibitory concentration [6]: 1000 µg/mL (≈ 1760 µM)
- Minimal inhibitory concentration [7]: 1000 µg/mL (≈ 1760 µM)
- Minimal inhibitory concentration [8]: 125 µg/mL (≈ 221 µM)
- Minimal inhibitory concentration [9]: 1000 µg/mL (≈ 1760 µM)
- Minimal inhibitory concentration [10]: 125 µg/mL (≈ 221 µM)
- Minimal inhibitory concentration [11]: 1000 µg/mL (≈ 1760 µM)
- Minimal inhibitory concentration [12]: 1000 µg/mL (≈ 1760 µM)

Source: patent US4537956A, “Antibiotics X-14889 A, C and D” (Hoffmann-La Roche Inc., priority 1983, dated 1985)
